These molecules were tested against T1, HIV protease (Human immunodeficiency virus type 1 group M subtype B, UniProt P04585) (assay: HIV protease enzyme assay (fluorescence, substrate 2-aminobenzoyl-lle-Nle-Phe(p-NO2)-Gin-ArgNH2)). Details: 10 microM; HIV protease 12.3 nanomolar; substrate 80 μM; pH 6.4.
T1 construct: HIV protease is diluted in the assay buffer to a final enzyme concentration of 12.3 nanomolar, based on a molecular weight of 10,780
Format: biochemical
Procedure: The compounds of the present invention are effective HIV protease inhibitors. […] The calculated IC50 (inhibiting concentration 50%, i.e., the concentration at which the inhibitor compound reduces enzyme activity by 50%) values are shown in Table 1. The enzyme method is described below. The substrate is 2-aminobenzoyl-lle-Nle-Phe(p-NO2)-Gin-ArgNH2. The positive control is MVT-101 [Miller, M. et al, Science, 246, 1149 (1989)]. The assay conditions are as follows:
Assay buffer: 20 mM sodium phosphate, pH 6.4
The above described substrate is dissolved in DMSO, then diluted 10 fold in assay buffer. Final substrate concentration in the assay is 80 μM. HIV protease is diluted in the assay buffer to a final enzyme concentration of 12.3 nanomolar, based on a molecular weight of 10,780.
The final concentration of DMSO is 14% and the final concentration of glycerol is 18%. The test compound is dissolved in DMSO and diluted in DMSO to 10×the test concentration; 10 μL of the enzyme preparation is added, the materials mixed and then the mixture is incubated at ambient temperature for 15 minutes. The enzyme reaction is initiated by the addition of 40 μL of substrate. The increase in fluorescence is monitored at 4 time points (0, 8, 16 and 24 minutes) at ambient temperature. Each assay is carried out in duplicate wells.

inhibition at 10 µM [%]	SMILES
16	CC(C)CCN1C[C@@H](O)[C@H](Cc2ccccc2)NC(=O)[C@@H](NC(=O)OCc2ccccc2)CC(=O)NCCCNC1=O [Compound 20, Carbamic Acid, [5-Hydroxy-3-(3-Methylbutyl)-2,8,11-Trioxo-5-(Phenylmethyl)-1,3,7,12-Tetraazacyclopentadec-9-YL]-, Phenylmethylester, (98-Trans)-]
20	CC(C)CCN1C[C@@H](O)[C@H](Cc2ccccc2)NC(=O)CCSCCCCCNC1=O [Compound 5]
47	CC(C)CCN1C[C@@H](O)[C@H](Cc2ccccc2)NC(=O)[C@@H](NC(=O)OCc2ccccc2)CSCCCCCCC1=O [Compound 10]
21	CC(C)CCN1C[C@@H](O)[C@H](Cc2ccccc2)NC(=O)CCS(=O)(=O)CCCCCNC1=O [Compound 17, 1-Thia-5,9,11-Triazacyclohexadecane, 7-Hydroxy-9-(3-Methylbutyl)-4,10-Dioxo-6-(Phenylmethyl)-, 1,1-Dioxide, Cis-]

Same assay, conditions: HIV protease 12.3 nanomolar; substrate 80 μM; pH 6.4; ambient temperature; read-out: IC50 (inhibiting concentration 50%)

IC50 [nM]	SMILES
510	CC(C)CCN1C[C@@H](O)[C@H](Cc2ccccc2)NC(=O)[C@@H](NC(=O)c2ccc3ccccc3n2)CSCCCCCNC1=O [Compound 9]
340	CC(C)CCN1C[C@@H](O)[C@H](Cc2ccccc2)NC(=O)[C@@H](NC(=O)OCc2ccccc2)CSCCCCNC1=O [Compound 1]
570	CC(C)CCN1C[C@@H](O)[C@H](Cc2ccccc2)NC(=O)[C@@H](NC(=O)OCc2ccccc2)CSCCCCCNC1=O [Compound 2]
1600	CC(=O)N[C@H]1CSCCCCCNC(=O)N(CCC(C)C)C[C@@H](O)[C@H](Cc2ccccc2)NC1=O [Compound 4]
220	CC(C)CCN1C[C@@H](O)[C@H](Cc2ccccc2)NC(=O)[C@@H](NC(=O)OCc2ccccc2)CSCCCCC(C)(C)NC1=O [Compound 6]
1260	CC(C)CCN1C[C@@H](O)[C@H](Cc2ccccc2)NC(=O)[C@@H](NC(=O)OCc2ccccc2)C(C)(C)SCCCCCNC1=O [Compound 7]
140	CC(C)CCN1C[C@@H](O)[C@H](Cc2ccccc2)NC(=O)[C@@H](NC(=O)OCc2ccccc2)CSCCCC(C)(C)NC1=O [Compound 8]
1730	CC(C)CCN1C[C@@H](O)[C@H](Cc2ccccc2)NC(=O)[C@@H](NC(=O)OCc2ccccc2)CSCCCCCCNC1=O [Compound 3]
